{"source": "patent US20110318768A1", "about": "“METHOD FOR DETERMINING SENSITIVITY OF TUMOR CELLS TO TYROSINE KINASE INHIBITOR AND COMPUTER PROGRAM PRODUCT” (SYSMEX CORPORATION, priority 2010, published 2011)", "key": {"[1]": {"system": "tyrosine kinase of MCF7", "conditions": "US 2011027809; cited from earlier work"}, "[2]": {"system": "tyrosine kinase of T47D", "conditions": "US 2011027809; cited from earlier work"}, "[3]": {"system": "tyrosine kinase in measurement samples of lapatinib-insensitive cell line group", "assay": "Tyrosine kinase activity inhibition, group comparison (FIG. 3)", "assay_type": "biochemical", "protocol": "(§1) After shaking the measuring plate at 37° C. and 400 rpm for 60 minutes, the solution was removed from the measuring plate, and the wells were washed with 300 μl of TBS-T three times. 100 μl of Starting Block T20 (TBS) (#37543: Pierce) as a blocking solution was added to the wells, followed by blocking at 37° C. and 400 rpm for 10 minutes. The blocking solution was removed from the measuring plate. 100 μl of a solution prepared by diluting HRP-labeled anti-phosphorylated tyrosine antibody (#sc-508 HRP: Santa Cruz) with Starting Block T20 (TBS) at a ratio of 1:1000 was added to the wells, followed by shaking at 37° C. and 400 rpm for 90 minutes. Then, the wells were washed with 300 μl of TBS-T five times. […] Thereafter, the emission from the wells was measured by a GENios microplate reader (manufactured by Tecan Trading AG). The inhibitory capacity of the kinase inhibitors in the measurement sample was evaluated by an inhibition rate (value of “100−{(measurement value of activity in the presence of inhibitors)/(measurement value of activity in the absence of inhibitors)}×100”) calculated base on a ratio of the measurement value of tyrosine kinase activity in the presence of the inhibitors and the measurement value of the control (in the absence of the inhibitors). […]"}, "[4]": {"system": "tyrosine kinase in measurement samples of lapatinib-sensitive cell line group", "assay": "Tyrosine kinase activity inhibition, group comparison (FIG. 3)", "assay_type": "biochemical", "protocol": "as §1"}, "[5]": {"system": "tyrosine kinase of BT-474", "conditions": "US 2011027809; cited from earlier work"}, "[6]": {"system": "tyrosine kinase of MDA-MB231", "conditions": "US 2011027809; cited from earlier work"}}}
{"smiles": "COc1cc2ncnc(Nc3ccc(Oc4ccccc4)cc3)c2cc1OC", "note": "[Inhibitor 10, 4-(4′-phenoxyanilino)-6,7-dimethoxyquinazoline]", "values": [{"measurement": "tyrosine kinase activity inhibitory effects caused by the Src inhibitor", "setting": "[1]", "value": "low"}, {"measurement": "tyrosine kinase activity inhibitory effects caused by the Src inhibitor", "setting": "[2]", "value": "low"}, {"measurement": "inhibitory effect of the Src inhibitor on the kinase activity", "setting": "[3]", "value": "high"}, {"measurement": "inhibitory effect of the Src inhibitor on the kinase activity", "setting": "[4]", "value": "low"}, {"measurement": "tyrosine kinase activity inhibitory effects caused by the Src inhibitor", "setting": "[5]", "value": "high"}, {"measurement": "tyrosine kinase activity inhibitory effects caused by the Src inhibitor", "setting": "[6]", "value": "low"}]}
